According to article PMC9704104, “Towards safer anti-inflammatory therapy: synthesis of new thymol–pyrazole hybrids as dual COX-2/5-LOX inhibitors” (Journal of Enzyme Inhibition and Medicinal Chemistry, 2022):

Experiments:
COX-1 = molecular target: T1, COX-1 (Ovis aries, UniProt P05979); assay: In vitro COX-1 inhibitory assay (Cayman colorimetric COX (ovine) inhibitor screening assay kit); type: biochemical; conditions: mean of three replicates ± SD
T1 construct: purchased Cayman chemicals 560131
T1 sequence (P05979 25-600): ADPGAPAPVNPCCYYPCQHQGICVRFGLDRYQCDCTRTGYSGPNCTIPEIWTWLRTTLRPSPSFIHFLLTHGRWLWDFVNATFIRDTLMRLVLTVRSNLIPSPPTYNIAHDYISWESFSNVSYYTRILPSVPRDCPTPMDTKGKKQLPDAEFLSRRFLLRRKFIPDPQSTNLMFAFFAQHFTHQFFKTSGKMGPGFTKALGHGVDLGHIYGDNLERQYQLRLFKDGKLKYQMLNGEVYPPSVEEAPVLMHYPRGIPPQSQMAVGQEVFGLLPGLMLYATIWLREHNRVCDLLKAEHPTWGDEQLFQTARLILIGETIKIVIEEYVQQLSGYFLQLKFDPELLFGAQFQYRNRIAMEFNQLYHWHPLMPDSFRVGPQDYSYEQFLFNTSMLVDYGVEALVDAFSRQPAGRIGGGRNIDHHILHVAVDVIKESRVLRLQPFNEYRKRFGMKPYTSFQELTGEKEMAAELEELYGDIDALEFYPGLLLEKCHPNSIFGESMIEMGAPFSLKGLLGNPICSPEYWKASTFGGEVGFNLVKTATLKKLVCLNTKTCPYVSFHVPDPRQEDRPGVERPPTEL
Method: (Page: S20, Supplementary file).
Anti-inflammatory activity
In vitro COX-1 and COX-2 inhibitory assay […]
supplied by Cayman chemicals, Ann Arbor, MI, USA according to reported method 1. The colorimetric COX inhibitor screening assay utilizes the peroxidase component of cyclooxygenase. The peroxidase activity was assayed calorimetrically by monitoring the appearance of oxidized N,N,N',N'-tetramethyl-1,4-phenylenediamine (TMPD) at 590nm. The appearance of reagent was carried out following the instructions […]
The half- maximal inhibitor concentrations (IC50µM) were determined and the selectivity index (SI) values were calculated as IC50 (COX-1)/IC50 (COX-2).
1) Background wells- 160 µL of assay buffer and 10 µL of heme were added to background wells.
2) The 100% Initial activity wells- 150 µL of assay buffer, 10 µL of heme and 10 µL of enzyme (COX-1 or COX-2) were added.
3) Inhibitor well- 150 µL of assay buffer, 10 µL of heme and 10 µL of enzyme were added.
4) 10 µL of inhibitor (3 concentrations) in DMSO was added to the inhibitor wells to yield a final […]
5) 10 µL of solvent (DMSO) was added to the 100% Initial activity wells and background wells.
7) 20 µL of colorimetric substrate solution (TMPD) was added to all wells.
8) 20 µL of arachidonic acid was added to all wells to yield a final concentration of 100 µM.
10) The absorbance was measured at 590 nm using a plate reader.
The calculations were carried out in the following manner:
1) The average absorbance of all samples was determined.
2) The absorbance of background wells was subtracted from absorbance of the 100% Initial activity […]
3) Percent inhibition = (100% Initial activity – Inhibitor wells/ 100% Initial activity)∗ 100 […]
Place the 96-well plate on a shaker for at least five minutes. […]

5-LOX = assay: In vitro 5-LOX inhibitory assay (Abnova 5-LOX inhibitor screening assay kit); type: biochemical
From the text: The newly synthesised compounds were screened for their ability to inhibit 5-LOX enzymes. […] (Page: S21, Supplementary file). […]
In vitro LOX inhibitory assay
Inhibitor Screening Assay Kit detects and measures the hydroperoxides produced in the lipoxygenation reaction using a purified LOX. The detection reaction is equally sensitive to hydroperoxides at various positions within the fatty acid and will work with fatty acids of any carbon length. It is thus a general detection method for 5-LOX and can be used to screen libraries of compounds for those which inhibit 5 -LOX enzymes.
1) Blank Wells- add 100 µL of assay buffer to at least two wells.
2) Positive Control Wells- Lipoxygenase (15-LO standard) add 90 µL 15-LO and 10 µL of assay buffer […]
3) 100% Initial Activity Wells- add 90 µL 15-LO and 10 µL of solvent (DMSO) (the same solvent to dissolve the inhibitor) to two wells. The 100% initial activity wells should result in approximately 10 […]
4) Inhibitor Wells- add 90 µL of sample and I10 µL of inhibitor to two wells.
5) Initiate the reaction by adding 10 µL of substrate (either arachidonic acid or linoleic acid) to all the wells. Place the 96-well plate on a shaker for at least five minutes.
6) Add 100 µL of chromogen to each well to stop enzyme catalysis and develop the reaction. Cover with a plate cover and place the 96-well plate on a shaker for at least five minutes.
7) Remove the cover and read the absorbance at 490-500 nm using a plate reader.
Inhibitors were dissolved in DMSO. The inhibitors were added to the assay in a final volume of 10 µL before initiating with substrate. Three concentrations were prepared (25, 50 and 100 µM) to determine the concentration produced 50% enzyme inhibition.
2) The absorbance of blank wells was subtracted from absorbance of the 100% Initial activity and the […]

`Cc1ccc(C(C)C)c(O)c1C=NNC(=O)c1cc(-c2ccccc2)n(-c2ccccc2)n1` [Compound 8d, N'-(2-Hydroxy-3-isopropyl-6-methylbenzylidene)-1,5-diphenyl-1H-pyrazole-3-carbo-hydrazide] showed an IC50 (COX-1) of 10.19 ± 0.036 µM and an IC50 (5-LOX) of 3.11 ± 0.046 µM.
